These results are taken from ChEMBL document CHEMBL1131809, “1-[(Benzofuran-2-yl)phenylmethyl]-triazoles and -tetrazoles - potent competitive inhibitors of aromatase” (Bioorg Med Chem Lett, 1999).

This test addresses T1, Aromatase (Homo sapiens, UniProt P11511).
T1 sequence (P11511 whole entry): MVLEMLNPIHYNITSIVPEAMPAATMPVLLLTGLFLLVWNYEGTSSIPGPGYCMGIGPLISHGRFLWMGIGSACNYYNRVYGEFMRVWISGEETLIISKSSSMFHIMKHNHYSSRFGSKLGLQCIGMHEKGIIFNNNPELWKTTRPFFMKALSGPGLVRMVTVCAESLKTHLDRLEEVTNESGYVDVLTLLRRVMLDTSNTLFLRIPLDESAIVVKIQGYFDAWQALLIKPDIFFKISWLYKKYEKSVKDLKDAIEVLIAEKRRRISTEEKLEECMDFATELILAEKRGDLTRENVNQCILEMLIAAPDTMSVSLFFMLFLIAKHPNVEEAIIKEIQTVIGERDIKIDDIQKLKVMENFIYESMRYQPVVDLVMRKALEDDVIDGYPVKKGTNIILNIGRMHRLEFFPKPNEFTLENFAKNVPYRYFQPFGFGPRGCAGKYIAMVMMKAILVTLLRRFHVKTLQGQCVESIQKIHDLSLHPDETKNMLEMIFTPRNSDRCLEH
Description: Inhibition of human placental aromatase, cytochrome P450 19A1 at 20 uM
In the case of `c1ccc(C(c2cc3ccccc3o2)n2cncn2)cc1` (stereo not drawn), the inhibition (as a rule, the relative decrease from the control value, in per cent) at 20 µM is 85.7%.

As to `O=[N+]([O-])c1ccc2oc(C(c3ccccc3)n3cnnn3)cc2c1` (stereo not drawn), 20 µM produced 14.4% inhibition.

`Cc1ccc(C(c2cc3ccccc3o2)n2cnnn2)cc1` (stereo not drawn) had an inhibition at 20 µM of 67.2%.
